Consider 26 compounds from patent US20250145585A1, “HETEROCYCLIC INHIBITORS OF IGF-1R FOR TREATMENT OF DISEASE” (HORIZON THERAPEUTICS IRELAND DAC, priority 2023, published 2025).

The target of the assay is T1, IGF-1R (Homo sapiens, UniProt P08069).
T1 construct: expressed in transfected cells
T1 sequence (P08069 31-1367): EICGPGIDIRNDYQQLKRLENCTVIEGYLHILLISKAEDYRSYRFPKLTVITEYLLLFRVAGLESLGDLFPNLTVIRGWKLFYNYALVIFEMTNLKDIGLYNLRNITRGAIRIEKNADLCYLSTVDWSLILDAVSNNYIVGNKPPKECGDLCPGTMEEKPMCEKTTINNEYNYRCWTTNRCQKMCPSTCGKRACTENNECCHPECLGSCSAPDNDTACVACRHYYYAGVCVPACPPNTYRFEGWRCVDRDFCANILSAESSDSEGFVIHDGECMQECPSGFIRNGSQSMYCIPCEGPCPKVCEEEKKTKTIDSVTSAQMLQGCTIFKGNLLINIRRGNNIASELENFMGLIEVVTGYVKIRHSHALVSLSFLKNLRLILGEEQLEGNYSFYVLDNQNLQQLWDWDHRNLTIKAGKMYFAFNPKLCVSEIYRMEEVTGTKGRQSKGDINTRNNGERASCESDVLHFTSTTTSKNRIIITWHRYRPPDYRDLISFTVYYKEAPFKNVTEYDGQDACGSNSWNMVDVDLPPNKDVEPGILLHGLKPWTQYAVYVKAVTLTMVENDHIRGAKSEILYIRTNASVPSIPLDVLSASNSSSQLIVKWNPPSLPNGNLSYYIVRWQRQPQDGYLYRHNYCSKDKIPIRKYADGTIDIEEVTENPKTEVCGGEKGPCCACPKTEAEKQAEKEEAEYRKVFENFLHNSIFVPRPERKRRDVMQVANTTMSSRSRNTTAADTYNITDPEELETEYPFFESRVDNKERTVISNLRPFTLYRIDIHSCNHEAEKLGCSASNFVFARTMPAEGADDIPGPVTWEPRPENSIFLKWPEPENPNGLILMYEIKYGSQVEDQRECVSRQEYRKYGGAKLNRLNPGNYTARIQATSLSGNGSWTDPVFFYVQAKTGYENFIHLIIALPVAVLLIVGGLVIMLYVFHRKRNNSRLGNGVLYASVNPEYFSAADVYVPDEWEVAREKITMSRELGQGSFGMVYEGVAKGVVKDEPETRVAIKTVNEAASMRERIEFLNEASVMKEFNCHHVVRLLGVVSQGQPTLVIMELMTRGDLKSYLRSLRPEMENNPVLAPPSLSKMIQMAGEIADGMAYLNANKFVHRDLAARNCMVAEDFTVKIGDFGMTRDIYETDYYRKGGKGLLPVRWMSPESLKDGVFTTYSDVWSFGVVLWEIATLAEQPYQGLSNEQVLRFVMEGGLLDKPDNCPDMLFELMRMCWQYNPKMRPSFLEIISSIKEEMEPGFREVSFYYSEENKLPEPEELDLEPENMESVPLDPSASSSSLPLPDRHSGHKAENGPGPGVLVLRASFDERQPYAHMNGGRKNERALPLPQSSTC
The assay can be described thus: Example B-1: IGF-1R Assay (PC3 cells stimulated with IGF1, AlphaLISA on cell lysates). As to conditions: compound two hours, IGF1 200 ng/mL for 30 min, read-out: IC50, Biological Activity against IGF-1R (Table B1). It is filed as cell-based. As to the method:
50K PC3 cells were seeded on day 1 in 50 μL of media in 96-well plate and incubated overnight at 37° C., 5% CO2. On day 2, all cells were expected to be at 80-90% confluency. Cells were starved for two hours by changing the media to 90 μL of EMEM serum-free media and incubated for 2 hours. Next, cells were treated with 10 μL of 10× concentrated and 3× serially diluted compounds for two hours. It makes 1× of compounds in 100 μL media. This was followed by stimulation of cells with 11×IGF1 for 30 min in 10 μL of serum-free EMEM media at the final concentration of 200 ng/mL.
The media was removed and replaced by 50 μL of 1× lysis buffer from the AlphaLISA kit (with 1× of cOmplete™ protease inhibitor). The plates were sealed, and cells were allowed to lyse for 10 min in the shaker before storing the plate at −20° C. until used. The AlphaLISA assay with processed cell lysates were performed as described in the protocol. Briefly, 10 μL of the undiluted sample were loaded to 384 well Optiplates and 5 μL of the acceptor mix (as described in the AlphaLISA kit) was added to each well. The plates were sealed and briefly vortexed followed by the incubation at RT for 3 hours. In the dark, 5 μL of donor mix was added to each well. All plates were sealed and stored at RT overnight. The plates were read in EnVision reader using standard AlphaLISA settings.
Compound activity was analyzed using CBIS data analysis suite (Cheminnovation, CA). Percentage inhibition was calculated using the following formula: % I-hibition=100%×(1−(mea−RLU of test sample−mean RLU of vehicle control)/(mean-RLU of EC80 control−mean RLU of vehicle control)). The activity for representative examples of the invention is shown in the following table, wherein A: IC50≤500 nM; B: 500 nM<IC50≤2 μM; C: 2 μM<IC50≤10 μM; D: IC50>10 μM.
A general note: Alpha assays give light when donor and acceptor beads are brought close together.
For the compound `CC(C)Nc1cc(CN2C(=O)N(c3ccc(C4CC(F)(F)C4)cc3)C(=O)C2(C)C)ccn1` [Compound 102, 3-(4-(3,3-difluorocyclobutyl)phenyl)-1-((2-(isopropylamino)pyridin-4-yl)methyl)-5,5-dimethylimidazolidine-2,4-dione], the IC50 (commonly the point on the concentration scale where inhibition reaches its midpoint) was in the range of 500 to 2000 nM.

Regarding `CC(C)NC(=O)Nc1cc(CN2C(=O)N(c3ccc(SC(F)(F)F)cc3)C(=O)C2(C)C)ccn1` [Compound 370, 1-(4-((5,5-dimethyl-2,4-dioxo-3-(4-((trifluoromethyl)thio)phenyl)imidazolidin-1-yl)methyl)pyridin-2-yl)-3-isopropylurea], the IC50 was not above 500 nM. Under `COCC(C)(C)Nc1cc(CN2C(=O)N(c3ccc(C(C)(C)C)cc3)C(=O)C2(C)C)ccn1` [Compound 274, 3-(4-(tert-butyl)phenyl)-1-((2-((1-methoxy-2-methylpropan-2-yl)amino)pyridin-4-yl)methyl)-5,5-dimethylimidazolidine-2,4-dione] stands 500 to 2000 nM.

As for `CC(C)Nc1cc(CN2C(=O)N(c3ccc(C4CC4(C)C)cc3)C(=O)C2(C)C)ccn1` (centres unmarked) [Compound 108, 3-(4-(2,2-dimethylcyclopropyl)phenyl)-1-((2-(isopropylamino)pyridin-4-yl)methyl)-5,5-dimethylimidazolidine-2,4-dione], the IC50 was not above 500 nM. Regarding `CC(C)(C)Nc1cc(CN2C(=O)N(c3ccc(SC(F)(F)F)cc3)C(=O)C2(C)C)ccn1` [Compound 387, 1-((2-(tert-butylamino)pyridin-4-yl)methyl)-5,5-dimethyl-3-(4-((trifluoromethyl)thio)phenyl) imidazolidine-2,4-dione], the half-maximal inhibitory concentration (IC50) lay in the range of 500 to 2000 nM. `CSc1ccc(N2C(=O)N(Cc3ccnc(N)c3)C(C)(C)C2=O)cc1` [Compound 395, 1-((2-aminopyridin-4-yl)methyl)-5,5-dimethyl-3-(4-(methylthio)phenyl)imidazolidine-2,4-dione]: the IC50 lay within 2000 to 10000 nM. Under `COc1cc(NC(=O)Nc2cc(CN3C(=O)N(c4ccc(SC(F)(F)F)cc4)C(=O)C3(C)C)ccn2)ccc1O[C@H]1C[C@@H](N(C)C)C1` [Compound 351, 1-(4-((5,5-dimethyl-2,4-dioxo-3-(4-((trifluoromethyl)thio)phenyl)imidazolidin-1-yl)methyl)pyridin-2-yl)-3-(4-((1s,3s)-3-(dimethylamino)cyclobutoxy)-3-methoxyphenyl)urea] stands not above 500 nM; under `CC(C)Nc1cc(CN2C(=O)N(c3ccc(C(C)(C)C)cc3)C(=O)C2(C)C)ccn1` [Compound 263, 3-(4-(tert-butyl)phenyl)-1-((2-(isopropylamino)pyridin-4-yl)methyl)-5,5-dimethylimidazolidine-2,4-dione], not above 500 nM.

In the case of `Cn1cc(NC(=O)Nc2cc(CN3C(=O)N(c4ccc(SC(F)(F)F)cc4)C(=O)C3(C)C)ccn2)cn1` [Compound 350, 1-(4-((5,5-dimethyl-2,4-dioxo-3-(4-((trifluoromethyl)thio)phenyl)imidazolidin-1-yl)methyl)pyridin-2-yl)-3-(1-methyl-1H-pyrazol-4-yl)urea], the IC50 was not above 500 nM. On to `CC1(Nc2cc(CN3C(=O)N(c4ccc(C(C)(C)C)cc4)C(=O)C3(C)C)ccn2)CC1` [Compound 273, 3-(4-(tert-butyl)phenyl)-5,5-dimethyl-1-((2-((1-methylcyclopropyl)amino)pyridin-4-yl)methyl) imidazolidine-2,4-dione], for which the half-maximal inhibitory concentration (IC50) was not above 500 nM. For the compound `CCc1cn(C)c2cc(N3C(=O)N(Cc4ccnc(NC(C)C)c4)C(C)(C)C3=O)ccc12` [Compound 257, 3-(3-ethyl-1-methyl-1H-indol-6-yl)-1-((2-(isopropylamino)pyridin-4-yl)methyl)-5,5-dimethylimidazolidine-2,4-dione], the IC50 fell in the range of 500 to 2000 nM.

As to `CN(C)CC(=O)Nc1cc(CN2C(=O)N(c3ccc(SC(F)(F)F)cc3)C(=O)C2(C)C)ccn1` [Compound 348, N-(4-((5,5-dimethyl-2,4-dioxo-3-(4-((trifluoromethyl)thio)phenyl)imidazolidin-1-yl)methyl)pyridin-2-yl)-2-(dimethylamino)acetamide], the concentration for half-maximal inhibition (IC50) is not above 500 nM. To `CCC1(C)C(=O)N(c2ccc(SC(F)(F)F)cc2)C(=O)N1Cc1ccnc(N)c1` (centres unmarked) [Compound 297, 1-((2-aminopyridin-4-yl)methyl)-5-ethyl-5-methyl-3-(4-((trifluoromethyl)thio)phenyl)imidazolidine-2,4-dione] belongs not above 500 nM; to `CC(C)(C)c1ccc(N2C(=O)N(Cc3ccnc(NC4(CO)CC4)c3)C(C)(C)C2=O)cc1` [Compound 271, 3-(4-(tert-butyl)phenyl)-1-((2-((1-(hydroxymethyl)cyclopropyl)amino)pyridin-4-yl)methyl)-5,5-dimethylimidazolidine-2,4-dione], 500 to 2000 nM. Under `CC1(C)C(=O)N(c2ccc(SC(F)(F)F)cc2)C(=O)N1Cc1ccnc(NCC(F)(F)F)c1` [Compound 313, 5,5-dimethyl-1-((2-((2,2,2-trifluoroethyl)amino)pyridin-4-yl)methyl)-3-(4-((trifluoromethyl)thio)phenyl) imidazolidine-2,4-dione] stands 500 to 2000 nM. For the compound `CC(C)Nc1cc(CN2C(=O)N(c3ccc(I)cc3)C(=O)C2(C)C)ccn1` [Compound 92, 3-(4-iodophenyl)-1-((2-(isopropylamino)pyridin-4-yl)methyl)-5,5-dimethylimidazolidine-2,4-dione], the IC50 is 500 to 2000 nM. `CC1(C)C(=O)N(c2ccc(C3=CCCCC3)cc2)C(=O)N1Cc1ccnc(N)c1` [Compound 86, 1-((2-aminopyridin-4-yl)methyl)-5,5-dimethyl-3-(2′,3′,4′,5′-tetrahydro-[1,1′-biphenyl]-4-yl)imidazolidine-2,4-dione]: the IC50 is 500 to 2000 nM. `CC1(C)C(=O)N(c2ccc(SC(F)(F)F)cc2)C(=O)N1Cc1ccnc(NC(=O)Nc2ccc(C#N)cc2)c1` [Compound 376, 1-(4-cyanophenyl)-3-(4-((5,5-dimethyl-2,4-dioxo-3-(4-((trifluoromethyl)thio)phenyl)imidazolidin-1-yl)methyl)pyridin-2-yl)urea]: the IC50 is not above 500 nM. Regarding `CC1(C)C(=O)N(c2ccc(C3(CO)CC3)cc2)C(=O)N1Cc1ccnc(N)c1` [Compound 100, 1-((2-aminopyridin-4-yl)methyl)-3-(4-(1-(hydroxymethyl)cyclopropyl)phenyl)-5,5-dimethylimidazolidine-2,4-dione], the IC50 lay within 500 to 2000 nM. Take `Cn1cc(CNc2cc(CN3C(=O)N(c4ccc(SC(F)(F)F)cc4)C(=O)C3(C)C)ccn2)cn1` [Compound 301, 5,5-dimethyl-1-((2-(((1-methyl-1H-pyrazol-4-yl)methyl)amino)pyridin-4-yl)methyl)-3-(4-((trifluoromethyl)thio)phenyl)imidazolidine-2,4-dione]: the IC50 is not above 500 nM. Under `Cc1[nH]c2nccc(CN3C(=O)N(c4ccc(C5(C(F)(F)F)CC5)cc4)C(=O)C3(C)C)c2c1Cl` [Compound 10, 1-((3-chloro-2-methyl-1H-pyrrolo[2,3-b]pyridin-4-yl)methyl)-5,5-dimethyl-3-(4-(1-(trifluoromethyl)cyclopropyl)phenyl) imidazolidine-2,4-dione] stands not above 500 nM; under `CC1(C)C(=O)N(c2ccc(C#N)cc2)C(=O)N1Cc1ccnc(N)c1` [Compound 80, 4-(3-((2-aminopyridin-4-yl)methyl)-4,4-dimethyl-2,5-dioxoimidazolidin-1-yl)benzonitrile], 500 to 2000 nM. With `CC1(C)C(=O)N(c2ccc(SC(F)(F)F)cc2)C(=O)N1Cc1ccnc2[nH]cc(Cl)c12` [Compound 5, 1-((3-chloro-1H-pyrrolo[2,3-b]pyridin-4-yl)methyl)-5,5-dimethyl-3-(4-((trifluoromethyl)thio)phenyl)imidazolidine-2,4-dione], the concentration for half-maximal inhibition (IC50) is not above 500 nM. On to `CC1(C)C(=O)N(c2ccc(SC(F)(F)F)cc2)C(=O)N1Cc1ccnc(NC(=O)Nc2ccc(F)cc2)c1` [Compound 368, 1-(4-((5,5-dimethyl-2,4-dioxo-3-(4-((trifluoromethyl)thio)phenyl)imidazolidin-1-yl)methyl)pyridin-2-yl)-3-(4-fluorophenyl)urea], for which the IC50 was not above 500 nM.

Consider `CC(C)(C)c1ccc(N2C(=O)N(Cc3ccnc(-c4ccn[nH]4)c3)C(C)(C)C2=O)cc1` [Compound 347, 1-((2-(1H-pyrazol-5-yl)pyridin-4-yl)methyl)-3-(4-(tert-butyl)phenyl)-5,5-dimethylimidazoline-2,4-dione], for which the IC50 was not above 500 nM. Regarding `CC1(C)C(=O)N(c2ccc(C3(C(F)(F)F)CC3)cc2)C(=O)N1Cc1ccnc2[nH]cc(Br)c12` [Compound 8, 1-((3-bromo-1H-pyrrolo[2,3-b]pyridin-4-yl)methyl)-5,5-dimethyl-3-(4-(1-(trifluoromethyl)cyclopropyl)phenyl)imidazolidine-2,4-dione], the 50% inhibitory concentration (IC50) was not above 500 nM.
